According to PubChem BioAssay AID328 (DTP/NCI, 2004):
“And” between values parts separate entries of the source, which are not always exact repeats. Identical values can stand only once. Toxic doses and inconclusive results are not listed.

System: BDF1 mice, P388 leukemia ip, median survival T/C
Assay: NCI In Vivo Anticancer Drug Screen. Data for tumor model P388 Leukemia (intraperitoneal) in B6D2F1 (BDF1) mice
Conditions: endpoint: median survival time, higher = longer survival
How it was run: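 Mice carrying the transplantable tumour receive compound or vehicle. Survival is followed in each arm, and the treated measure is divided by the vehicle measure.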

[1] = dose: 25.0 mg/kg/injection, schedule: Q04DX003 (ip), vehicle: saline
[2] = dose: 50.0 mg/kg/injection, schedule: Q04DX003 (ip), vehicle: saline
[3] = dose: 100.0 mg/kg/injection, schedule: Q04DX003 (ip), vehicle: saline
[4] = dose: 100.0 mg/kg/injection, schedule: Q01DX009 (ip), vehicle: Klucel (hydroxypropylcellulose) (HPC)
[5] = dose: 100.0 mg/kg/injection, schedule: Q04DX003 (ip), vehicle: Klucel (hydroxypropylcellulose) (HPC)
[6] = dose: 200.0 mg/kg/injection, schedule: Q01DX009 (ip), vehicle: Klucel (hydroxypropylcellulose) (HPC)
[7] = dose: 200.0 mg/kg/injection, schedule: Q04DX003 (ip), vehicle: Klucel (hydroxypropylcellulose) (HPC)
[8] = dose: 400.0 mg/kg/injection, schedule: Q04DX003 (ip), vehicle: Klucel (hydroxypropylcellulose) (HPC)
[9] = dose: 25.0 mg/kg/injection, schedule: Q01DX009 (ip), vehicle: saline
[10] = dose: 50.0 mg/kg/injection, schedule: Q01DX009 (ip), vehicle: saline
[11] = dose: 100.0 mg/kg/injection, schedule: Q01DX009 (ip), vehicle: saline
[12] = dose: 200.0 mg/kg/injection, schedule: Q01DX009 (ip), vehicle: saline
[13] = dose: 200.0 mg/kg/injection, schedule: Q04DX003 (ip), vehicle: saline
[14] = dose: 400.0 mg/kg/injection, schedule: Q01DX009 (ip), vehicle: saline
[15] = dose: 400.0 mg/kg/injection, schedule: Q04DX003 (ip), vehicle: saline
[16] = dose: 25.0 mg/kg/injection, schedule: Q01DX009 (ip), vehicle: saline with Tween-80
[17] = dose: 50.0 mg/kg/injection, schedule: Q01DX009 (ip), vehicle: saline with Tween-80
[18] = dose: 100.0 mg/kg/injection, schedule: Q01DX009 (ip), vehicle: saline with Tween-80
[19] = dose: 100.0 mg/kg/injection, schedule: Q04DX003 (ip), vehicle: saline with Tween-80
[20] = dose: 200.0 mg/kg/injection, schedule: Q04DX003 (ip), vehicle: saline with Tween-80
[21] = dose: 400.0 mg/kg/injection, schedule: Q04DX003 (ip), vehicle: saline with Tween-80
[22] = dose: 200.0 mg/kg/injection, schedule: Q01DX009 (ip), vehicle: saline with Tween-80

For `C=CCN(CC=C)CC=C`, the T/C [1] was 111 % of control, the T/C [2] was 108 % of control and the T/C [3] was 111 % of control.

In the case of `CC(=O)c1ccccc1OCC(O)CN1CCN(c2ccccc2Cl)CC1` (configuration not stated), the T/C (dose: 37.5 mg/kg/injection, schedule: Q04DX003 (ip), vehicle: saline with Tween-80) is reported as 100 % of control, the T/C (dose: 75.0 mg/kg/injection, schedule: Q04DX003 (ip), vehicle: saline with Tween-80) is reported as 109 % of control and the T/C (dose: 150.0 mg/kg/injection, schedule: Q04DX003 (ip), vehicle: saline with Tween-80) is reported as 90 % of control.

`O=c1ccc2nc3cc(Cl)ccc3sc-2c1` was tested, and the T/C [4] was 109 % of control, the T/C [5] was 100 % of control and the T/C [6] was 95 % of control and 105 % of control. The T/C [7] was 90 % of control, the T/C (dose: 400.0 mg/kg/injection, schedule: Q01DX009 (ip), vehicle: Klucel (hydroxypropylcellulose) (HPC)) was 100 % of control and the T/C [8] was 90 % of control.

In the case of `Cc1ccc2c(Br)cc(Br)c(O)c2n1`, the T/C (dose: 10.0 mg/kg/injection, schedule: Q01DX009 (ip), vehicle: Klucel (hydroxypropylcellulose) (HPC)) is reported as 115 % of control, the T/C (dose: 20.0 mg/kg/injection, schedule: Q01DX009 (ip), vehicle: Klucel (hydroxypropylcellulose) (HPC)) is reported as 115 % of control and the T/C (dose: 40.0 mg/kg/injection, schedule: Q01DX009 (ip), vehicle: Klucel (hydroxypropylcellulose) (HPC)) is reported as 115 % of control. For the same compound, the T/C [4] was 100 % of control.

With `CCCCN(CCCC)CCCC#N` the T/C [9] was 116 % of control, the T/C [1] was 100 % of control and the T/C [10] was 116 % of control. The T/C [2] was 96 % of control, the T/C (dose: 66.0 mg/kg/injection, schedule: Q01DX009 (ip), vehicle: saline with Tween-80) was 120 % of control and the T/C [3] was 103 % of control.

`Nc1ccn[nH]1` was tested, and the T/C [11] was 100 % of control, the T/C [3] was 100 % of control and the T/C [12] was 100 % of control. The T/C [13] was 109 % of control, the T/C [14] was 118 % of control and the T/C [15] was 122 % of control.

With `Cc1ccc(N)c(Br)c1` the T/C [16] was 100 % of control, the T/C [17] was 109 % of control and the T/C [18] was 118 % of control.

With `CNc1nc(N)c(N=O)c(Nc2ccc(Br)cc2)n1` the T/C (dose: 62.5 mg/kg/injection, schedule: Q01DX010 (ip), vehicle: carboxymethylcellulose (CMC)) was 105 % of control, the T/C (dose: 125.0 mg/kg/injection, schedule: Q01DX010 (ip), vehicle: carboxymethylcellulose (CMC)) was 110 % of control and the T/C (dose: 250.0 mg/kg/injection, schedule: Q01DX010 (ip), vehicle: carboxymethylcellulose (CMC)) was 100 % of control. The T/C (dose: 500.0 mg/kg/injection, schedule: Q01DX010 (ip), vehicle: carboxymethylcellulose (CMC)) was 100 % of control.

`CC1(C)N=C(N)N=C(N)N1c1ccc(CNC(=O)Nc2ccc(S(=O)(=O)F)cc2)c(Cl)c1` was tested, and the T/C (dose: 16.5 mg/kg/injection, schedule: Q01DX009 (ip), vehicle: saline with Tween-80) was 176 % of control, the T/C [16] was 188 % of control and the T/C (dose: 37.5 mg/kg/injection, schedule: Q01DX009 (ip), vehicle: saline with Tween-80) was 185 % of control. The T/C (dose: 88.0 mg/kg/injection, schedule: Q04DX003 (ip), vehicle: saline with Tween-80) was 186 % of control and the T/C (dose: 132.0 mg/kg/injection, schedule: Q04DX003 (ip), vehicle: saline with Tween-80) was 157 % of control.

For `CN1CCc2ccccc2C1Cc1ccccc1NC(=O)c1sc2ccccc2c1Cl` (configuration not stated), the T/C (dose: 50.0 mg/kg/injection, schedule: Q01DX009 (ip), vehicle: Klucel (hydroxypropylcellulose) (HPC)) was 86 % of control, the T/C [4] was 91 % of control and the T/C [6] was 89 % of control.

With `CCOC(=O)/C(Cc1cnc2ccccc2n1)=N\O` the T/C [19] was 95 % of control, the T/C [20] was 100 % of control and the T/C [21] was 100 % of control.

With `O=C(Nc1cc(C(F)(F)F)ccc1Cl)ON1CCCCC1` the T/C (dose: 12.5 mg/kg/injection, schedule: Q01DX009 (ip), vehicle: saline with Tween-80) was 107 % of control, the T/C [16] was 94 % of control and the T/C [17] was 114 % of control and 124 % of control. The T/C [18] was 100 % of control and 102 % of control and the T/C [22] was 91 % of control.

For `CN1C(=O)C23CC4=CC=CC(O)C4N2C(=O)C1(CO)SS3` (configuration not stated), the T/C (dose: 0.19 mg/kg/injection, schedule: Q01DX009 (ip), vehicle: saline with Tween-80) was 100 % of control, the T/C (dose: 0.38 mg/kg/injection, schedule: Q01DX009 (ip), vehicle: saline with Tween-80) was 100 % of control and the T/C (dose: 0.75 mg/kg/injection, schedule: Q01DX009 (ip), vehicle: saline with Tween-80) was 108 % of control and 109 % of control.

`CC(C)NCC(O)COc1ccc(OCc2ccccc2)c(OCc2ccccc2)c1` (configuration not stated) was tested, and the T/C [16] was 106 % of control and the T/C [17] was 94 % of control.

With `CCOC(=O)C(c1ccccc1)c1ccccc1` the T/C (dose: 100.0 mg/kg/injection, schedule: Q04DX003 (ip), vehicle: other) was 100 % of control, the T/C (dose: 200.0 mg/kg/injection, schedule: Q04DX003 (ip), vehicle: other) was 95 % of control and the T/C (dose: 400.0 mg/kg/injection, schedule: Q04DX003 (ip), vehicle: other) was 90 % of control.

In the case of `CC(C)n1cnc2c(Cl)ncnc21`, the T/C [18] is reported as 100 % of control, the T/C [19] is reported as 104 % of control and the T/C [20] is reported as 95 % of control. For the same compound, the T/C [21] was 90 % of control.

For `CC(C)(C)OC(=O)C(CC(=O)O)=C(c1ccccc1)c1ccccc1`, the T/C [5] was 95 % of control, the T/C [7] was 108 % of control and the T/C [8] was 95 % of control.

`Cc1c(C)c(O)c2c(c1O)C(=O)C=C(Cl)C2=O` was tested, and the T/C (dose: 6.25 mg/kg/injection, schedule: Q04DX003 (ip), vehicle: saline with Tween-80) was 121 % of control, the T/C (dose: 12.5 mg/kg/injection, schedule: Q04DX003 (ip), vehicle: saline with Tween-80) was 119 % of control and 120 % of control and the T/C (dose: 25.0 mg/kg/injection, schedule: Q04DX003 (ip), vehicle: saline with Tween-80) was 110 % of control and 120 % of control.

In the case of `CN(C)C/C=C(/c1ccc(Br)cc1)c1cccnc1`, the T/C (dose: 12.5 mg/kg/injection, schedule: Q01DX009 (ip), vehicle: saline) is reported as 89 % of control, the T/C [9] is reported as 103 % of control and the T/C [10] is reported as 97 % of control.

With `NC(c1ccccc1)c1c(O)ccc2ccccc12` (configuration not stated) the T/C (dose: 100.0 mg/kg/injection, schedule: Q01DX009 (ip), vehicle: gum acacia) was 103 % of control, the T/C (dose: 100.0 mg/kg/injection, schedule: Q04DX003 (ip), vehicle: gum acacia) was 109 % of control and the T/C (dose: 200.0 mg/kg/injection, schedule: Q01DX009 (ip), vehicle: gum acacia) was 107 % of control. For the same compound, the T/C (dose: 200.0 mg/kg/injection, schedule: Q04DX003 (ip), vehicle: gum acacia) was 122 % of control, the T/C (dose: 400.0 mg/kg/injection, schedule: Q01DX009 (ip), vehicle: gum acacia) was 117 % of control and the T/C (dose: 400.0 mg/kg/injection, schedule: Q04DX003 (ip), vehicle: gum acacia) was 122 % of control.

For `O=C1CSC(=S)N1c1ccco1`, the T/C (dose: 50.0 mg/kg/injection, schedule: Q01DX001 (ip), vehicle: Klucel (hydroxypropylcellulose) (HPC)) was 100 % of control, the T/C (dose: 100.0 mg/kg/injection, schedule: Q01DX001 (ip), vehicle: Klucel (hydroxypropylcellulose) (HPC)) was 95 % of control and the T/C [3] was 104 % of control. The T/C (dose: 200.0 mg/kg/injection, schedule: Q01DX001 (ip), vehicle: Klucel (hydroxypropylcellulose) (HPC)) was 95 % of control, the T/C [13] was 100 % of control and the T/C [15] was 100 % of control.

`Nc1nc(N)c(N=O)c(N)n1` was tested, and the T/C [11] was 150 % of control, the T/C [12] was 111 % of control and the T/C [14] was 106 % of control.

`N#CCc1ccc([N+](=O)[O-])cc1` was tested, and the T/C (dose: 6.25 mg/kg/injection, schedule: Q01DX009 (ip), vehicle: Klucel (hydroxypropylcellulose) (HPC)) was 100 % of control, the T/C (dose: 12.5 mg/kg/injection, schedule: Q01DX009 (ip), vehicle: Klucel (hydroxypropylcellulose) (HPC)) was 91 % of control and the T/C (dose: 12.5 mg/kg/injection, schedule: Q04DX003 (ip), vehicle: Klucel (hydroxypropylcellulose) (HPC)) was 104 % of control. For the same compound, the T/C (dose: 25.0 mg/kg/injection, schedule: Q04DX003 (ip), vehicle: Klucel (hydroxypropylcellulose) (HPC)) was 117 % of control.

For `CCOC(=O)C(=O)C1CCCC1=O` (configuration not stated), the T/C [18] was 92 % of control, the T/C [19] was 95 % of control and the T/C [22] was 89 % of control. For the same compound, the T/C [20] was 109 % of control, the T/C (dose: 400.0 mg/kg/injection, schedule: Q01DX009 (ip), vehicle: saline with Tween-80) was 92 % of control and the T/C [21] was 100 % of control.
